# Test results as given in patent publication US5049372A, “Anticancer activities in a host by increasing blood and plasma adenosine 5'-triphosphate (ATP) levels” (priority 1988, dated 1991).
# How the values were obtained:
# [1] = tested on: CT26 colon adenocarcinoma; test: Growth inhibition of footpad CT26 colon adenocarcinoma in CB6F1 mice, second series (FIGS. 2 and 3); type: in vivo, mouse
# Procedure: (§1) A further series of tests are conducted whereby tumors are inoculated by injections of 2.5×10^5 CT26 cells (over 90% viability) in 50 μl of phosphate-buffered saline into the right hind footpad of CB6F1 mice. The treatments were initiated at a variety of times after inoculation of the tumors. The injection schedules started either 1 or 5 days after tumor inoculation when none of the tumors are palpable or when the tumors are clearly palpable (average calculated weight of 100 mg), which occur in 100% of the inoculated mice after 8-11 days. Mice are randomized, divided into groups, and injected daily with 2.2 ml of saline, adenosine, AMP, or ATP (compounds are in sterile saline solutions at concentrations of 25 mM with AMP and ATP solutions adjusted to pH 6.2). Injections are administered intraperitoneally with 30 gauge needles and the mice are lightly anesthetized with […]. The mice are weighed and tumor sizes measured before the start of the treatment schedule and every three days during and after the treatment schedule. These determinations are performed before injections during the treatment period.
# (§2) In particular, see FIG. 2. FIG. 2 illustrates inhibition of tumor growth (---) and host weight loss (-) in tumor-bearing mice by treatment with adenine nucleotides. Mice (CB6F1, 8 week old males) bearing palpable CT26 footpad tumors (on day 9 after tumor inoculation) are treated with saline (.smallcircle.), adenosine (o), AMP (Δ), or ATP (.quadrature.) as described herein. An untreated group is also included (x). Arrows indicate days of injection.
# The magnitude of the antitumor activities of AMP and ATP depends to a small extent on the pH of the solution administered intraperitoneally. This property is probably related to the number of negative charges on the phosphate groups (the pKa of the secondary phosphate is around 6.6). AMP and especially ATP have some buffering capacity, and at a pH below 6.6 they carry a smaller net charge than at a physiological pH. The lower charge of these molecules enhances the initial (first hour) transport of AMP and ATP across the peritoneal membrane and into the systemic circulation (see Torres, et al., 1978, Pharmacol., 17, 330-340). […] The treatment schedule of palpable CT26 tumors which is illustrated in FIG. 2 consistently yields 10-20% of "cures". These mice remain tumor-free for at least two months.
# FIG. 3 further illustrates inhibition of host weight loss in tumor-bearing animals by treatment with adenine nucleotides. Mice (CB6F1, males, 7 weeks old, in A, 10 weeks old in B, […]) with saline (.smallcircle.), adenosine (o), AMP (Δ), or ATP (.quadrature.) are initiated 1 day (A), 5 days (B), or 9 days after tumor inoculation (when all the tumors were palpable) (C). Arrows indicate days of injection. Experimental procedures were outlined in the text.
# RBC ATP pools [2] = test: Expansion of RBC ATP pools and blood plasma ATP levels after i.p. injection (Table 4); type: in vivo, mouse
# Procedure: (§3) The mice are anesthetized with ether during the procedure. Plasma or Hanks' (Balanced Salt Solution) BSS media from incubated isolated RBCs (Red Blood Cells) are prepared by centrifugation of whole blood or RBCs in a Beckman microfuge (30 seconds at 8000 xg) and samples of 100 μl are added to 1 ml of ice-cold 7% trichloroacetic acid. Red blood cells are prepared by centrifugation of whole blood (1500 xg for 5 minutes at 4° C.) and removal of plasma and the buffy coat is followed by a wash of the pelleted RBCs (from 250 μl of whole blood) in 5 ml of ice-cold Hanks' BSS. After centrifugations, the RBCs pellet is resuspended in Hanks' BSS to yield a total volume with the original hematocrit (percent of RBCs volume in the whole blood). Aliquots of 20 μl of RBCs suspensions or whole blood are added to 1 ml of ice-cold 7% trichloroacetic acid. Extraction of acid-soluble nucleotides and determinations of ATP levels by luminometry followed procedures discussed hereinabove. Levels of [^3 H]ATP in whole blood, RBCs, plasma, or RBCs incubation media (Hanks' BSS) are determined after incorporation of 250 μCi of [^3 H]adenosine of specific radioactivity of 30 Ci/mmol (1 Ci=3.7×10^10 becquerels) into whole blood or RBC suspensions (250 μl total) followed by immediate trichloroacetic acid extractions as described above. Two dimensional thin layer chromatography on poly(ethylene)imine cellulose with an unlabeled ATP carrier is performed according to Bochner and Ames, J. Biol. Chem., 257, pp. 9759-9769, 1982). For the determination of whole blood or isolated RBC [^3 H]ATP pools, 10 μl of a 1 ml initial trichloroacetic acid extract are chromatographed. Determinations of [^3 H]ATP levels in blood plasma or RBCs incubation media are performed on 300 μl of an initial 1 ml trichloroacetic acid extract which are lyophilized and redissolved in 15 μl of water. After chromatography, the spots corresponding to the ATP carrier are cut, eluted with 0.5 ml of 4 N ammonium hydroxide, and radioactivity determined in 10 ml of scintillation fluid.
# Single intraperitoneal injections of 2 ml of 35 mM of AMP or ATP in saline at pH 6.2 into CB6F1 mice result in expansions of RBC ATP pools in these mice (see Table 4).
# The expansions of RBC ATP pools after i.p. injections of AMP or ATP could be detected 30 minutes after injections and lasted for approximately 6-8 hours after the nucleotides were completely adsorbed across the peritoneal membrane and into the systemic circulation. The rates of adsorption of intraperitoneal AMP or ATP solutions varied in different strains of mice. […] These plasma ATP levels originate in RBCs since they can be metabolically labeled by [^3 H]adenosine. Plasma ATP pools which originate in the dense granules of blood platelets would not be radioactively labeled under the same conditions (e.g., Holmsen, 1985, Seminars in Hematol, 22, 219-240). The experiments described in Tables 4 and 5 include uptake of [^3 H]adenosine by whole blood (Table 4) or isolated washed RBCs (Table 5 below). In both cases, all the extracellular ATP, determined seconds after the uptake of [^3 H]adenosine, is metabolically labeled.
# RBC ATP pools [3] = test: Stability of expanded RBC ATP pools in washed isolated RBCs in vitro after i.p. injection (Table 5); set-up: species or system mouse; details: average of two experiments
# Procedure: as §3
# Two hour incubations of washed isolated RBCs containing normal or expanded ATP pools in Hanks' BSS result in relatively small decreases in RBC ATP pools with the expanded pools being maintained well above normal levels (Table 5). The expansions of RBC ATP pools after i.p. administration of AMP or ATP in vivo is presumably the result of their dephosphorylation followed by the RBCs uptake of the adenosine which is generated in situ.
# RBC ATP pools [4] = test: RBC ATP pools after in vitro incubation of whole mouse blood with 1 mM compound (Table 6); type: cell-based; details: 1 mM compound, 30 min, bioluminometry
# Procedure: ^+ RBC ATP pools were determined in isolated washed RBCs after
# incubations of whole blood with 1 mM of the specified compound by
# bioluminometry. Data represent means ± S.D. of three separate
# [5] = Inhibition of host weight loss (cancer cachexia) in CT26 tumor-bearing mice; type: in vivo, mouse
# Procedure: as §1, §2
# FIG. 3 further illustrates inhibition of host weight loss in tumor-bearing animals by treatment with adenine nucleotides. Mice (CB6F1, males, 7 weeks old, in A, 10 weeks old in B, C) are inoculated with CT26 tumors and daily treatments (for 10 consecutive days) with saline (.smallcircle.), adenosine (o), AMP (Δ), or ATP (.quadrature.) are initiated 1 day (A), 5 days (B), or 9 days after tumor inoculation (when all the tumors were palpable) (C). Arrows indicate days of injection. Experimental procedures were outlined in the text.
# [6] = 5 hours after i.p. injection of 2 ml of 35 mM, CB6F1, bioluminometry, citrate-dextrose
compound,measurement,setting,value
"Nc1ncnc2c1ncn2[C@@H]1O[C@H](CO)[C@@H](O)[C@H]1O [Adenosine, adenosine]",Anticancer activities against established footpad CT26 colon adenocarcinoma,"[1]; CB6F1 mice, in words",without such effects
same,Deaths before stated day after tumor inoculation,"[1]; FIG. 2 experiment, palpable CT26 tumors, 10 animals per group",No deaths occurred before day 22
same,Inhibition of growth of palpable CT26 tumors (in words),"[1]; daily i.p. in 2.2 ml saline, pH 6.2, 12 days, starting after tumors palpable, equimolar amounts",Much weaker anticancer activities
same,Plasma ATP levels,RBC ATP pools [2]; [6],1.12 ± 0.28 µM
same,RBC ATP pools,RBC ATP pools [2]; [6],1.10 ± 0.24 mM
same,Plasma [^3 ]ATP levels immediately after [^3 H]adenosine incorporation into whole blood,"RBC ATP pools [2]; 5 hours after i.p. injection of 2 ml of 35 mM, CB6F1, radioactivity corrected by RBC specific radioactivity",0.77 ± 0.30 µM
same,Expansion of RBC ATP pools (in words),"RBC ATP pools [2]; i.p. injection, host animals",only slightly effective in expanding mouse RBC ATP pools
same,"Medium (Hanks' BSS) [^3 H]ATP levels immediately after [^3 H]adenosine incorporation into isolated, washed RBCs (at time 0)",RBC ATP pools [3]; time 0,1.20 µM
same,ATP levels in the medium (Hanks' BSS),"RBC ATP pools [3]; time 0, bioluminometry",1.71 µM
same,"RBC ATP pools (37° C.), 0 min","RBC ATP pools [3]; washed RBCs in Hanks' BSS, 37° C., 0 min",0.69 mM
same,"RBC ATP pools (37° C.), 120 min","RBC ATP pools [3]; washed RBCs in Hanks' BSS, 37° C., 120 min",0.54 mM
same,RBC ATP pools (after 30 min incubations in heparinized mouse blood),RBC ATP pools [4],0.55 ± 0.17 µM
same,Deaths before stated day after tumor inoculation,"[5]; FIG. 3, treatment initiated day 1 (A), day 5 (B) or day 9 (C)","No deaths occurred before day 19 (A) or day 25 (B,C)"
same,"Effect on tumor growth and rate of weight loss, schedules ending before tumors become large","[5]; FIGS. 3A and 3B, treatment from day 1 or day 5",having only a small effect on either of the two phenomena
same,Inhibition of host weight loss (in words),"[5]; tumors of similar sizes, FIG. 2 data",inhibit weight loss
